pKi: −log10 of the molar value.
What was measured:
caspase-8 = caspase-8 (Homo sapiens, UniProt Q14790); experiment: Caspase-8 enzyme inhibition (Ki, method of Margolin et al.); type: biochemical; settings: Ac-DEVD-pNA substrate 80 μM, 37° C., pH 7.5; read-out: Ki C8
Experimental: (§1) Compounds of this invention may be tested using the methods described below.
(§2) In Vitro Assays Enzyme Inhibition
(§3) Ki values for test compounds with caspase-1 and caspase-8 were obtained by the method of Margolin et al. (J. Biol. Chem., 272 pp. 7223-7228 (1997)). Other caspases may be assayed similarly (see, e.g., WO 99/47545). Assays were performed in 10 mM Tris (Sigma Corp, St Louis Mo.) pH 7.5, 1 mM Dithiothreitol (DTT, Research Organic INC, Cleveland, Ohio) and 0.1% CHAPS (Pierce, Rockford Ill.) at 37° C. For caspase-3, a solution of 8% glycerol was added to the assay buffer to improve enzyme stability. A 65 μL aliquot of the assay buffer and 5 μL aliquot of the appropriate dilutions of inhibitor in DMSO where pipetted into a 96 well plate, treated with 10 μL of caspase, then diluted in assay buffer (0.5-40 nM active protein by active site titration). A control containing DMSO but no compound was included for each determination. The plates were then incubated for 15 minutes at 37° C., before addition of the appropriate substrate (20 μL, final concentration 1-4×KM, final assay volume 100 μL) to initiate the reaction. Reaction rates were measured at 37° C. either by following the time dependant increase in absorbance at 405 nm (for the pNA substrates) or in fluorescence (Ex 390, Em 460) (for the AMC substrates). The rates obtained were plotted against inhibitor concentration and the data fit to the Morrison tight-binding equation for competitive inhibitors (Morrison, J. F., Biochem. Biophys. Acta, 185 pp. 269-286 (1969)). The substrates used for the individual assays were as follows:
Caspase-8 Ac-DEVD-pNA (Bachem, King of Prussia, Pa.) (final concentration in assay 80 μM).

caspase-1 = biological target: T1, caspase-1 (Homo sapiens, UniProt P29466); experiment: Caspase-1 enzyme inhibition (Ki, method of Margolin et al.); type: biochemical; settings: Suc-YVAD-pNA substrate 80 μM, 37° C., pH 7.5; read-out: Ki C1
T1 sequence (P29466 120-297 limits assumed): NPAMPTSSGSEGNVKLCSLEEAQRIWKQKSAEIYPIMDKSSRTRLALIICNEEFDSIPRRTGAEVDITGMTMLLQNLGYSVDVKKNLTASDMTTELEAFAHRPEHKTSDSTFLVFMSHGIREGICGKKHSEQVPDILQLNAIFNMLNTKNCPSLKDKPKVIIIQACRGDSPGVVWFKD
T1 sequence (P29466 317-404 limits assumed): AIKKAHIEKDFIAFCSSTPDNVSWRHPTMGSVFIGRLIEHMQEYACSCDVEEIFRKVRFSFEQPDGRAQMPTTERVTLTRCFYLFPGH
Experimental: as §1, §2, §3
Caspase-1 Suc-YVAD-pNA (Bachem, King of Prussia, Pa.) (final concentration in the assay 80 μM);

Chain of caspase-8 (Q14790 217-374 limits assumed, species assumed): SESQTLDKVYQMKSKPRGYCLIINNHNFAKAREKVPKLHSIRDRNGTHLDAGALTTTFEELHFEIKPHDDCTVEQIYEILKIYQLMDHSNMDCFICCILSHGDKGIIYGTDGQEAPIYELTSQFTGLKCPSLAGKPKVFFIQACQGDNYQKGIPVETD
Chain of caspase-8 (Q14790 385-479 limits assumed, species assumed): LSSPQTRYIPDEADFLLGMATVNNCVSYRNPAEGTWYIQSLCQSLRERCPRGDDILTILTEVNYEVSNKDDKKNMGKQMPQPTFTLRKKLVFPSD

Structure (SMILES)	pKi (caspase-8)	pKi (caspase-1)
Cc1ccsc1C(=O)N[C@H](C(=O)N1CCC[C@H]1C(=O)N[C@H](C=O)CC(=O)O)C(C)C [II-17, (S,S,S)-(3S)-[(1-{3-Methyl-(2S)-[(3-methyl-thiophene-2-carbonyl)-amino]-butyryl}-pyrrolidine-(2S)-carbonyl)-amino]-4-oxo-butyric acid]	> 8.00	> 8.00
CCc1cccc(C(=O)N[C@H](C(=O)N2CCC[C@H]2C(=O)N[C@H](C=O)CC(=O)O)C(C)(C)C)c1Cl [II-36, (S,S,S)-(3S)-({1-[(2S)-(2-Chloro-3-ethyl-benzoylamino)-3,3-dimethyl-butyryl]-pyrrolidine-(2S)-carbonyl}-amino)-4-oxo-butyric acid]	> 8.00	> 8.00
COc1ccccc1C(=O)N[C@H](C(=O)N1CCC[C@H]1C(=O)N[C@H](C=O)CC(=O)O)C(C)C [II-4, (S,S,S)-(3S)-({1-[(2S)-(2-methoxy-benzoylamino)-3-methyl-butyryl]-pyrrolidine-(2S)-carbonyl}-amino)-4-oxo-butyric acid]	7.70 to 8.00	> 8.00
CC(C)(C)[C@H](NC(=O)c1cccc(OC(F)(F)F)c1Cl)C(=O)N1CCC[C@H]1C(=O)N[C@H](C=O)CC(=O)O [II-32, (S,S,S)-(3S)-({1-[(2S)-(2-Chloro-3-trifluoromethoxy-benzoylamino)-3,3-dimethyl-butyryl]-pyrrolidine-(2S)-carbonyl}-amino)-4-oxo-butyric acid]	> 8.00	> 8.00
COc1cccc(C(=O)N[C@H](C(=O)N2CCC[C@H]2C(=O)N[C@H](C=O)CC(=O)O)C(C)C)c1C [II-1, (S,S,S)-(3S)-({1-[(2S)-(3-Methoxy-2-methyl-benzoylamino)-3-methyl-butyryl]-pyrrolidine-(2S)-carbonyl}-amino)-4-oxo-butyric acid]	> 8.00	> 8.00
Cc1c(Cl)cccc1C(=O)N[C@H](C(=O)N1CCC[C@H]1C(=O)N[C@H](C=O)CC(=O)O)C(C)C [II-10, (S,S,S)-(3S)-({1-[(2S)-(3-Chloro-2-methyl-benzoylamino)-3-methyl-butyryl]-pyrrolidine-(2S)-carbonyl}-amino)-4-oxo-butyric acid]	7.70 to 8.00	> 8.00
CC(=O)Nc1ccc(C(=O)N[C@H](C(=O)N2CCC[C@H]2C(=O)N[C@H](C=O)CC(=O)O)C(C)C)c(F)c1 [II-45, (S,S,S)-(3S)-({1-[(2S)-(2-fluoro-4-acetamido-benzoylamino)-3-methyl-butyryl]-pyrrolidine-(2S)-carbonyl}-amino)-4-oxo-butyric acid]	> 8.00	> 8.00
CC(C)(C)[C@H](NC(=O)c1ccccc1C(F)(F)F)C(=O)N1CCC[C@H]1C(=O)N[C@H](C=O)CC(=O)O [II-29, (S,S,S)-(3S)-({1-[3,3-Dimethyl-(2S)-(2-trifluoromethyl-benzoylamino)-butyryl]-pyrrolidine-(2S)-carbonyl}-amino)-4-oxo-butyric acid]	> 8.00	> 8.00
CC(C)[C@H](NC(=O)c1cc(Cl)ccc1Cl)C(=O)N1CCC[C@H]1C(=O)N[C@H](C=O)CC(=O)O [II-12, (S,S,S)-(3S)-({1-[(2S)-(2,5-Dichloro-benzoylamino)-3-methyl-butyryl]-pyrrolidine-(2S)-carbonyl}-amino)-4-oxo-butyric acid]	7.70 to 8.00	> 8.00
CC(C)[C@H](NC(=O)c1cccc(C(F)(F)F)c1Cl)C(=O)N1CCC[C@H]1C(=O)N[C@H](C=O)CC(=O)O [II-9, (S,S,S)-(3S)-({1-[(2S)-(2-Chloro-3-trifluoromethyl-benzoylamino)-3-methyl-butyryl]-pyrrolidine-(2S)-carbonyl}-amino)-4-oxo-butyric acid]	7.70 to 8.00	> 8.00
COc1cccc(C(=O)N[C@H](C(=O)N2CCC[C@H]2C(=O)N[C@H](C=O)CC(=O)O)C(C)C)c1Cl [II-35, (S,S,S)-(3S)-({1-[(2S)-(2-chloro-3-methoxy-benzoylamino)-3-methyl-butyryl]-pyrrolidine-(2S)-carbonyl}-amino)-4-oxo-butyric acid]	> 8.00	> 8.00
COc1cccc(C(=O)N[C@@H](Cc2cscn2)C(=O)N2CCC[C@H]2C(=O)N[C@H](C=O)CC(=O)O)c1C [II-23, (S,S,S)-(3S)-({1-[(2S)-(3-Methoxy-2-methyl-benzoylamino)-3-thiazol-4-yl-propionyl]-pyrrolidine-(2S)-carbonyl}-amino)-4-oxo-butyric acid]	7.52 to 7.68	> 8.00
COc1cccc(C(=O)N[C@H](C(=O)N2CCC[C@H]2C(=O)N[C@H](C=O)CC(=O)O)C(C)(C)C)c1Cl [II-30, (S,S,S)-(3S)-({1-[(2S)-(2-Chloro-3-methoxy-benzoylamino)-3,3-dimethyl-butyryl]-pyrrolidine-(2S)-carbonyl}-amino)-4-oxo-butyric acid]	> 8.00	> 8.00

The remaining lines, values ahead:

pKi (caspase-8)	pKi (caspase-1)	Structure (SMILES)
7.70 to 8.00	> 8.00	CC(=O)Nc1ccc(C(=O)N[C@H](C(=O)N2CCC[C@H]2C(=O)N[C@H](C=O)CC(=O)O)C(C)C)c(Cl)c1 [II-40, (S,S,S)-(3S)-({1-[(2S)-(2-chloro-4-acetamido-benzoylamino)-3-methyl-butyryl]-pyrrolidine-(2S)-carbonyl}-amino)-4-oxo-butyric acid]
> 8.00	> 8.00	CC(=O)Nc1ccc(C(=O)N[C@H](C(=O)N2CCC[C@H]2C(=O)N[C@H](C=O)CC(=O)O)C(C)(C)C)c(F)c1 [II-44, (S,S,S)-(3S)-({1-[(2S)-(2-fluoro-4-acetamido-benzoylamino)-3,3-dimethyl-butyryl]-pyrrolidine-(2S)-carbonyl}-amino)-4-oxo-butyric acid]
7.70 to 8.00	7.70 to 8.00	CC(C)(C)[C@H](NC(=O)c1nccc2ccccc12)C(=O)N1[C@@H]2CC[C@@H](C2)[C@H]1C(=O)N[C@H](C=O)CC(=O)O (stereo in doubt) [II-64, (3S)-({2-[(2S)-(Isoquinolin-1-ylcarbonylamino)-3,3-dimethyl-butyryl]-2-(1S,4R)-aza-bicyclo[2.2.1]heptane-(3S)-carbonyl}-amino)-4-oxo-butyric acid]
> 8.00	> 8.00	CCC(=O)Nc1ccc(C(=O)N[C@H](C(=O)N2C3CC[C@@H](C3)[C@H]2C(=O)NC(C=O)CC(=O)O)C(C)(C)C)c(Cl)c1 (stereo in doubt) [II-58, (3S)-({2-[(2S)-(2-Chloro-4-propionylamino-benzoylamino)-3,3-dimethyl-butyryl]-2-(1S,4R)-aza-bicyclo[2.2.1]heptane-(3S)-carbonyl}-amino)-4-oxo-butyric acid]
> 8.00	> 8.00	CC(C)(C)[C@H](NC(=O)c1ccc(N)c(Cl)c1)C(=O)N1[C@@H]2CC[C@@H](C2)[C@H]1C(=O)N[C@H](C=O)CC(=O)O (stereo in doubt) [II-65, (3S)-({2-[(2S)-(4-Amino-3-chloro-benzoylamino)-3,3-dimethyl-butyryl]-2-(1S,4R)-aza-bicyclo[2.2.1]heptane-(3S)-carbonyl}-amino)-4-oxo-butyric acid]
> 8.00	> 8.00	CC(C)C(=O)Nc1cccc(C(=O)N[C@H](C(=O)N2C3CC[C@@H](C3)[C@H]2C(=O)N[C@H](C=O)CC(=O)O)C(C)(C)C)c1Cl (stereo in doubt) [II-59, (3S)-({2-[(2S)-(2-Chloro-3-isobutyrylamino-benzoylamino)-3,3-dimethyl-butyryl]-2-(1S,4R)-aza-bicyclo[2.2.1]heptane-(3S)-carbonyl}-amino)-4-oxo-butyric acid]
> 8.00	> 8.00	CC(=O)Nc1ccc(C(=O)N[C@H](C(=O)N2C3CC[C@@H](C3)[C@H]2C(=O)N[C@H](C=O)CC(=O)O)C(C)(C)C)c(Cl)c1 (stereo in doubt) [II-57, (3S)-({2-[(2S)-(4-Acetylamino-2-chloro-benzoylamino)-3,3-dimethyl-butyryl]-2-(1S,4R)-aza-bicyclo[2.2.1]heptane-(3S)-carbonyl}-amino)-4-oxo-butyric acid]
7.70 to 8.00	> 8.00	CCC(=O)Nc1ccc(C(=O)N[C@H](C(=O)N2[C@@H]3CC[C@@H](C3)[C@H]2C(=O)N[C@H](C=O)CC(=O)O)C(C)(C)C)cc1Cl (stereo in doubt) [II-63, (3S)-({2-[(2S)-(3-Chloro-4-propionylamino-benzoylamino)-3,3-dimethyl-butyryl]-2-(1S,4R)-aza-bicyclo[2.2.1]heptane-(3S)-carbonyl}-amino)-4-oxo-butyric acid]

Reference: patent publication US7652153B2, “Caspase inhibitors and uses thereof” (Vertex Pharmaceuticals Incorporated, priority 2004, dated 2010)
